{
  "source": "patent US7910729B2",
  "about": "“Azulenyl nitrone spin trapping agents, methods of making and using same” (The Florida International University Board of Trustees, priority 2004, dated 2011)",
  "key": {"[1]": {"assay": "Antioxidant assay: AIBN-initiated oxidation of cumene to cumene hydroperoxide, followed by 1H NMR", "assay_type": "physicochemical", "conditions": "atmospheric oxygen, 37° C., FIG. 1", "protocol": "In the following example, comparative testing of the antioxidant activity of azulenyl nitrone compounds of the invention against a control, was performed. The assay was based on the well-established oxidation of cumene to cumene hydroperoxide by atmospheric oxygen at 37° C. in the presence of the free radical initiator AIBN (Blanchard, H. S. J. Am. Chem. Soc. (1959) 81:4548; Characterization of products formed during the autoxidation of beta carotene. Handelman, G. J., van Kujik, F. J. G. M., Chatterjee, A., Krinsky, N. I. Free Rad. Biol. Med. (1991) 10: 427-37). The progress of the peroxidation reaction is conveniently followed and quantified by 1H NMR spectroscopy by monitoring the appearance and increasing integration of the singlet arising from the methyl groups of cumene hydroperoxide. The use of a long, low power, selective pulse (Shaped radiofrequency pulses in high resolution NMR. Freeman, R. J. Prog. Nuc. Mag. Spec. (1998) 32:59) allowed the growth of the cumene hydroperoxide methyl group singlet to be accurately measured in the presence of a huge excess of cumene. This was shown by using known concentrations of commercially available cumene hydroperoxide to calibrate the peak areas."}, "[2]": {"tested_on": "human diploid fibroblast cells", "conditions": "cited from earlier work"}, "[3]": {"tested_on": "aged animal model", "conditions": "daily intraperitoneal injection, male and female populations; cited from earlier work"}, "[4]": {"tested_on": "aged rats", "conditions": "chronic treatment; cited from earlier work"}, "[5]": {"conditions": "aqueous solution at pH 7 and 20° C.; cited from earlier work"}, "[6]": {"tested_on": "lipopolysaccharide (LPS) administered to rats", "conditions": "cited from earlier work"}},
  "data": [
    {"smiles": "Cc1ccc(C(C)C)cc2c(/C=[N+](\\[O-])C(C)(C)C)cc(/C=C/c3cc(/C=[N+](\\[O-])C(C)(C)C)c4cc(C(C)C)ccc(C)c3-4)c1-2", "note": "[STAZN, Stilbazulenyl Nitrone]", "values": [
      {"measurement": "potency as nitrone-based chain breaking antioxidants / free-radical scavenging/antioxidant activity", "setting": "[1]", "value": "remarkable potency"}
    ]},
    {"smiles": "CC(C)(C)[N+]([O-])=Cc1ccccc1", "note": "[PBN, alpha-phenyl N-tert-butylnitrone]", "values": [
      {"measurement": "onset of senescence", "setting": "[2]", "value": "effectively delayed the onset of senescence"},
      {"measurement": "lifespan", "setting": "[3]", "value": "remarkable extension of the lifespan"},
      {"measurement": "age-related changes in cognitive performance", "setting": "[4]", "value": "benefit (i.e., improve)"}
    ]},
    {"smiles": "Cc1c(C)c2c(c(C)c1O)CC[C@@](C)(CCC[C@H](C)CCC[C@H](C)CCCC(C)C)O2", "note": "[vitamin E, alpha-tocopherol]", "values": [
      {"measurement": "one-electron oxidative potential (vs. NHE)", "setting": "[5]", "value": 0.48, "unit": "V"},
      {"measurement": "age-related changes in cognitive performance", "setting": "[4]", "value": "benefit (i.e., improve)"}
    ]},
    {"smiles": "CC1(C)Cc2ccccc2C=[N+]1[O-]", "note": "[MDL 101,002]", "values": [
      {"measurement": "LPS-induced leukopenia", "setting": "[6]", "value": "failed to prevent leukopenia"},
      {"measurement": "LPS-induced pulmonary edema", "setting": "[6]", "value": "prevented pulmonary edema"},
      {"measurement": "LPS-induced thrombocytopenia", "setting": "[6]", "value": "partially reduced thrombocytopenia"},
      {"measurement": "organ dysfunction and cytokine secretion induced by LPS", "setting": "[6]", "value": "reduces"}
    ]},
    {"smiles": "COC=Cc1cc(/C=C/c2cc(/C=[N+](\\[O-])C(C)(C)C)c3cc(C(C)C)ccc(C)c2-3)c2c(C)ccc(C(C)C)cc1-2", "note": "[I]", "values": [
      {"measurement": "melting point", "value": "235 °C (dec.)"}
    ]},
    {"smiles": "Cc1ccc(C(C)C)cc2c(C=C3SCCCS3)cc(/C=C/c3cc(/C=[N+](\\[O-])C(C)(C)C)c4cc(C(C)C)ccc(C)c3-4)c1-2", "note": "[STNXY]", "values": [
      {"measurement": "potency as nitrone-based chain breaking antioxidants / free-radical scavenging/antioxidant activity", "setting": "[1]", "value": "remarkable potency"}
    ]}
  ]
}
